The record followed here is ChEMBL document CHEMBL1159148, “Myo-inositol 1,4,6-trisphosphate: A new synthetic Ca2+-mobilising inositol phosphate” (Bioorg Med Chem Lett, 1993).

The species named for this experiment is Oryctolagus cuniculus. Description: Compound was evaluated for its ability to release [Ca2+] from permeabilised rabbit platelets. The format is functional.

Turning to `O=P(O)(O)O[C@@H]1[C@H](O)[C@H](O)[C@@H](OP(=O)(O)O)[C@H](OP(=O)(O)O)[C@H]1O` (stereo in doubt; form 1) [INS(1,4,5)P3], the EC50 is 0.18 µM. `O=P(O)(O)O[C@@H]1[C@H](O)[C@H](O)[C@@H](OP(=O)(O)O)[C@H](OP(=O)(O)O)[C@H]1O` (stereo in doubt; form 2) [INS(1,4,5)P3] came in with an EC50 of 2.07 µM.

The EC50 is the concentration at which the effect is half-maximal.
